In article PMC10924921, “Mi-2β promotes immune evasion in melanoma by activating EZH2 methylation” (Nature Communications, 2024):

Key:
Test in all cases: biochemical
Set-up in all cases: KINOMEscan active-site competition binding panel (468 kinase assays), per cent of control at 1000 nM
Settings in all cases: KINOMEscan per cent of control (binding competition); read-out: Percent Control
MAP3K4 = MAP3K4 (Homo sapiens, UniProt Q9Y6R4)
Text: (§1) Figure S7 / Percent Control

TYRO3 = TYRO3 (Homo sapiens, UniProt Q06418)
Text: as §1

NEK3 = NEK3 (Homo sapiens, UniProt P51956)
Text: as §1

KIT(L576P) = KIT(L576P) (Homo sapiens, UniProt P10721, L576P)
Text: as §1

MST3 = target: T1, MST3 (Homo sapiens, UniProt Q9Y6E0)
T1 construct: gene STK24
Text: as §1

PLK1 = PLK1 (Homo sapiens, UniProt P53350)
Text: as §1

CSNK1A1 = CSNK1A1 (Homo sapiens, UniProt P48729)
Text: as §1

ABL1-nonphosphorylated = target: T2, ABL1-nonphosphorylated (Homo sapiens, UniProt P00519)
T2 construct: nonphosphorylated
Text: as §1

MET(M1250T) = MET(M1250T) (Homo sapiens, UniProt P08581, M1250T)
Text: as §1

MRCKA = target: T3, MRCKA (Homo sapiens, UniProt Q5VT25)
T3 construct: gene CDC42BPA
Text: as §1

PIP5K2B = target: T4, PIP5K2B (Homo sapiens, UniProt P78356)
T4 construct: gene PIP4K2B
Text: as §1

[1] = target: T5, TYK2(JH1domain-catalytic) (Homo sapiens, UniProt P29597)
T5 construct: JH1domain-catalytic
Text: as §1

EPHA8 = EPHA8 (Homo sapiens, UniProt P29322)
Text: as §1

[2] = target: T6, JAK3(JH1domain-catalytic) (Homo sapiens, UniProt P52333)
T6 construct: JH1domain-catalytic
Text: as §1

MEK6 = target: T7, MEK6 (Homo sapiens, UniProt P52564)
T7 construct: gene MAP2K6
Text: as §1

CHEK2 = CHEK2 (Homo sapiens, UniProt O96017)
Text: as §1

PIK3C2B = PIK3C2B (Homo sapiens, UniProt O00750)
Text: as §1

[3] = target: T8, RSK4(Kin.Dom.1-N-terminal) (Homo sapiens, UniProt Q9UK32)
T8 construct: gene RPS6KA6; Kin.Dom.1-N-terminal
Text: as §1

CDKL1 = CDKL1 (Homo sapiens, UniProt Q00532)
Text: as §1

YANK1 = target: T9, YANK1 (Homo sapiens, UniProt Q8WU08)
T9 construct: gene STK32A
Text: as §1

TBK1 = TBK1 (Homo sapiens, UniProt Q9UHD2)
Text: as §1

PRKCE = PRKCE (Homo sapiens, UniProt Q02156)
Text: as §1

SYK = SYK (Homo sapiens, UniProt P43405)
Text: as §1

CDK4 = CDK4 (Homo sapiens, UniProt P11802)
Text: as §1

MET(M1250T), sequence (P08581 whole entry M1250T): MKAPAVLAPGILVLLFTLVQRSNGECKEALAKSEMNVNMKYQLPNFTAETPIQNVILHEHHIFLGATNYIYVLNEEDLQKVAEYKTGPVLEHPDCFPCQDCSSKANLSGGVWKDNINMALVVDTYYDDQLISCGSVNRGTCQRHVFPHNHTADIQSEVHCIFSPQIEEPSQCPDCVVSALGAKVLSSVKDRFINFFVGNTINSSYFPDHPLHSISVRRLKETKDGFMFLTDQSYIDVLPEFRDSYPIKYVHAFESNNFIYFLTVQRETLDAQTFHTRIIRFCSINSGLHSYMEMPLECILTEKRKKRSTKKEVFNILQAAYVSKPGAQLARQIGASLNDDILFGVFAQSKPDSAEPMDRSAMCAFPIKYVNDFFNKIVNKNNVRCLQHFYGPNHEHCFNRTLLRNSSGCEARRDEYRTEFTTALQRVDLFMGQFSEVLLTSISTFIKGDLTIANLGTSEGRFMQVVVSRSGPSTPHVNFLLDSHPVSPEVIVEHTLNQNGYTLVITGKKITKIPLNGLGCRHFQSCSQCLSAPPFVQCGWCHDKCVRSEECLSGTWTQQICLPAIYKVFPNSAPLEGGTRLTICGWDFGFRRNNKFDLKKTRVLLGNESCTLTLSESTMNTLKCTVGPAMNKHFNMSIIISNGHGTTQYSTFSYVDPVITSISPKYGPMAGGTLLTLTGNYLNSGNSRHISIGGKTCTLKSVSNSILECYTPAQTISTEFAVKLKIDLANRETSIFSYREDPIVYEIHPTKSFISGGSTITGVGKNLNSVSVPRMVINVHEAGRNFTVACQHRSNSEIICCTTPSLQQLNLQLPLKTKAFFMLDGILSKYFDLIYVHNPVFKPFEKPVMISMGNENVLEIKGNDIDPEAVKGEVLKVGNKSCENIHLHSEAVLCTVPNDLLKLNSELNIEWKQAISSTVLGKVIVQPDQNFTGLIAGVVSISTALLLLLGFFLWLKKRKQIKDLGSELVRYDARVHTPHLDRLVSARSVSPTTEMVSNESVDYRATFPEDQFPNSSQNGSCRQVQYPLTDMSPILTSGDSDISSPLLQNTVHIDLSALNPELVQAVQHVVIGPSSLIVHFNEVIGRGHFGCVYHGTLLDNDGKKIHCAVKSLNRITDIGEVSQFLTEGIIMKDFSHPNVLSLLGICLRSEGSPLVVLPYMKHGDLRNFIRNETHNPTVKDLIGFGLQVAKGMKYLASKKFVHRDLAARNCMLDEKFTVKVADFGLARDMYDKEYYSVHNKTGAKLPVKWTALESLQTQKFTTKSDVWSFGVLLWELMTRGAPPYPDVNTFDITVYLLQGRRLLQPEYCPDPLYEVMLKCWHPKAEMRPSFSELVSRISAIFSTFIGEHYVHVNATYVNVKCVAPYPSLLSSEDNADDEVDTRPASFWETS
PRKCE, sequence (Q02156 whole entry): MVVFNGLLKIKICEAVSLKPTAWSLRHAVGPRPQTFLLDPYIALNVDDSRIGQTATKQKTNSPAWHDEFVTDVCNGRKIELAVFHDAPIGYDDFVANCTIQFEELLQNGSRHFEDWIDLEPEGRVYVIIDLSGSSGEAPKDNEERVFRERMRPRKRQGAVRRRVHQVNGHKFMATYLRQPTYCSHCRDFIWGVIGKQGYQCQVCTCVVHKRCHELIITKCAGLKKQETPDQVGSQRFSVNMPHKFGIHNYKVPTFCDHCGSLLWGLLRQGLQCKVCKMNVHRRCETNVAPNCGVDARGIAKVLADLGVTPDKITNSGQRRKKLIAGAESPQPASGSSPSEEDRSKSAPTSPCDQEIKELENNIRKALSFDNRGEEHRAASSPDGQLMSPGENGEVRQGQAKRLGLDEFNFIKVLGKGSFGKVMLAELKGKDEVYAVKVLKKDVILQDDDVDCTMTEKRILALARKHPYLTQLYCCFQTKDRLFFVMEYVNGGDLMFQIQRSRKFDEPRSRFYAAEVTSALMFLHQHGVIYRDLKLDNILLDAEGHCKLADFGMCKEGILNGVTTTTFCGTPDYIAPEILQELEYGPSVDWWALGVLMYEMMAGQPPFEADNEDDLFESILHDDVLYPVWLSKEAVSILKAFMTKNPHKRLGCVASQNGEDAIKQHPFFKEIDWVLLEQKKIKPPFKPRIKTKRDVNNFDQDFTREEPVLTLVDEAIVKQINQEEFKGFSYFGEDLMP
CHEK2, sequence (O96017 whole entry): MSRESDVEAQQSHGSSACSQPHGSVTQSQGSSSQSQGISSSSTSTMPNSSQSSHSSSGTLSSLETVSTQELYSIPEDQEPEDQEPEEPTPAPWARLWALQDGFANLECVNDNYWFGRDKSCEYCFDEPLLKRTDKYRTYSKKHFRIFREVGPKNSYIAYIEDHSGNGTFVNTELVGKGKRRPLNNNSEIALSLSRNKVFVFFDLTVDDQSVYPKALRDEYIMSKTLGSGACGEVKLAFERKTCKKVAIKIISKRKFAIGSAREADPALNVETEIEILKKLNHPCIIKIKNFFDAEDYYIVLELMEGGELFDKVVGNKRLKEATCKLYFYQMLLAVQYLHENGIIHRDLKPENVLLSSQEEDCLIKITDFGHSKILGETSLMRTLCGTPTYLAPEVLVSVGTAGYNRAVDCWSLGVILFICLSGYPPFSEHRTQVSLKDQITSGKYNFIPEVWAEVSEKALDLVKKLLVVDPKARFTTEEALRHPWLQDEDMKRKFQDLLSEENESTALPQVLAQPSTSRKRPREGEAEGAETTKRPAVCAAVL
T9 sequence (Q8WU08 whole entry): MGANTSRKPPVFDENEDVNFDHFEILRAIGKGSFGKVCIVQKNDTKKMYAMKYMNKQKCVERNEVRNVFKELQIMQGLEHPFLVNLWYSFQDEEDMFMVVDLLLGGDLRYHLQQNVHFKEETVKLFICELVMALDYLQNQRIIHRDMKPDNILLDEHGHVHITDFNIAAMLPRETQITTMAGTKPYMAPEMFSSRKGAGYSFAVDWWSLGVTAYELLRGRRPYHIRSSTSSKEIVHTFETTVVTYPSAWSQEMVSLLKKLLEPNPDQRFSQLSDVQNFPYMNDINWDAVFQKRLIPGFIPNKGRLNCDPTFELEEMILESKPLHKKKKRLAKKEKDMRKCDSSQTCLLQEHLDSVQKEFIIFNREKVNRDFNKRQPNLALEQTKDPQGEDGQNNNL
CSNK1A1, sequence (P48729 whole entry): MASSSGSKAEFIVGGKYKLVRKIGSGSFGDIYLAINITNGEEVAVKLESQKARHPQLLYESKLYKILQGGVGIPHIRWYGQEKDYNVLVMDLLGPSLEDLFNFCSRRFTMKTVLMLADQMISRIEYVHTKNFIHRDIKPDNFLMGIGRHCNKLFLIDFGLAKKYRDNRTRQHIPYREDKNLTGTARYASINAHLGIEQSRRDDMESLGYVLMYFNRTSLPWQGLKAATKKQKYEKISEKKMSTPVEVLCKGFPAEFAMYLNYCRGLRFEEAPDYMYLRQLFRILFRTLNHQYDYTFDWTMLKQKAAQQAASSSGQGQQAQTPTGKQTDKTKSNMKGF
KIT(L576P), sequence (P10721 whole entry L576P): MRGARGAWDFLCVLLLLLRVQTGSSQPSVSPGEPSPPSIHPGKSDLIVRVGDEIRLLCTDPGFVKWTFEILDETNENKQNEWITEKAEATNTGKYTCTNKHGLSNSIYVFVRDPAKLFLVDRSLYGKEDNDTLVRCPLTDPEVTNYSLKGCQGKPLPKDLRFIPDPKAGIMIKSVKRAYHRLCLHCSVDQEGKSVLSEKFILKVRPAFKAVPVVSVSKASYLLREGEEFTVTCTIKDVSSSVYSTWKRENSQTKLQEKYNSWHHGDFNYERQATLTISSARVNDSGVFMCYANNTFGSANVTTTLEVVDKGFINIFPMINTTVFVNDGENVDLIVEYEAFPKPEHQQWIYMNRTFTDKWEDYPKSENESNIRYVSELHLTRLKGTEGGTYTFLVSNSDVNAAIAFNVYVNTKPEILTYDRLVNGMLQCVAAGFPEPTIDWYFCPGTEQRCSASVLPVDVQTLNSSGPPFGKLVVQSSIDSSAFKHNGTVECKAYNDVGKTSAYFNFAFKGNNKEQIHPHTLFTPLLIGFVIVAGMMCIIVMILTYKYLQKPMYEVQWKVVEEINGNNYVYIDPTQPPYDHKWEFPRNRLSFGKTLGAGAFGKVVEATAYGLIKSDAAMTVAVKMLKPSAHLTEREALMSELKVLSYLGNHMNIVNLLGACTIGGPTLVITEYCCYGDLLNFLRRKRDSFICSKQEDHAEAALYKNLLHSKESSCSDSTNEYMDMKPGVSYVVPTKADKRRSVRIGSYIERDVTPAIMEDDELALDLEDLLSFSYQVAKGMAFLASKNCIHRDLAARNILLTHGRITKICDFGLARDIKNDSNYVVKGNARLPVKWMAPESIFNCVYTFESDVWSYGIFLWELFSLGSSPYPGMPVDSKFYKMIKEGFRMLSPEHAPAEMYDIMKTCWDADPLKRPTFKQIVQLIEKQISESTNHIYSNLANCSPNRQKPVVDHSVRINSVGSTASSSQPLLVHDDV
T7 sequence (P52564 whole entry): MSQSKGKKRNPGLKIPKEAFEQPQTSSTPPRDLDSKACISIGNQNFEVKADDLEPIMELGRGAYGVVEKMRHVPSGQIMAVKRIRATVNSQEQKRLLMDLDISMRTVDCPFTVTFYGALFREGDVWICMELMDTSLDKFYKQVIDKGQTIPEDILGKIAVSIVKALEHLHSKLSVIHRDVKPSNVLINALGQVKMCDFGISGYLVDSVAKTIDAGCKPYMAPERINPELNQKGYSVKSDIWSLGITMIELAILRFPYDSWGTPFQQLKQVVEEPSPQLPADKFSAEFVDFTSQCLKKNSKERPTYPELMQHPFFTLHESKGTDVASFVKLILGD
CDK4, sequence (P11802 whole entry): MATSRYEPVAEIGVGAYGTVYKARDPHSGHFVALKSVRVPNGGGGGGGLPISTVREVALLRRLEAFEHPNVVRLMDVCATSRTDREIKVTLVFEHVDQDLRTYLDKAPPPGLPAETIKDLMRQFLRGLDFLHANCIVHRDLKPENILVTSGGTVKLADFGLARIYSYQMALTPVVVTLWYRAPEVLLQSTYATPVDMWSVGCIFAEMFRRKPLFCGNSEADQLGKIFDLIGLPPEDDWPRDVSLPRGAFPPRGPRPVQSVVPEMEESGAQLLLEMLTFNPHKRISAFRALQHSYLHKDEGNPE

Molecule `Cn1c(=O)[nH]c2ccc(-c3cccc(C(=O)NC4CCn5ccnc5C4)c3)cc21` (stereo not drawn) [Z36-MP5] has a remaining binding at 1 µM (MAP3K4) of 63%, a remaining binding at 1 µM (TYRO3) of 100% and a remaining binding at 1 µM (NEK3) of 50%. The remaining binding at 1 µM (KIT(L576P)) was 74%, the remaining binding at 1 µM (MST3) was 96% and the remaining binding at 1 µM (PLK1) was 70%. It also gave a remaining binding at 1 µM (CSNK1A1) of 74%, a remaining binding at 1 µM (ABL1-nonphosphorylated) of 91% and a remaining binding at 1 µM (MET(M1250T)) of 88%. For the same molecule, the remaining binding at 1 µM (MRCKA) was 100%, the remaining binding at 1 µM (PIP5K2B) was 54% and the remaining binding at 1 µM [1] was 64%. For the same molecule, the remaining binding at 1 µM (EPHA8) was 75%, the remaining binding at 1 µM [2] was 70% and the remaining binding at 1 µM (MEK6) was 99%. For the same molecule, the remaining binding at 1 µM (CHEK2) was 58%, the remaining binding at 1 µM (PIK3C2B) was 87% and the remaining binding at 1 µM [3] was 36%. The remaining binding at 1 µM (CDKL1) was 41%, the remaining binding at 1 µM (YANK1) was 95% and the remaining binding at 1 µM (TBK1) was 98%. For the same molecule, the remaining binding at 1 µM (PRKCE) was 100%, the remaining binding at 1 µM (SYK) was 57% and the remaining binding at 1 µM (CDK4) was 62%.
